The text below walks through data of patent US20210255193A1, “LYSINE REACTIVE PROBES AND USES THEREOF” (The Scripps Research Institute, priority 2017, published 2021).

What all share (assay): competitive isoTOP-ABPP
Assay type in all cases: binding

For assay [1], the target named is T1, CUL2 Cullin-2 (Homo sapiens, UniProt Q13617).
T1 construct: isoTOP-ABPP experiments performed in cell lysates (in vitro); endogenous in cells; host or cells: soluble proteome of human cancer cell lines (MDA-MB-231, Ramos, Jurkat)
T1 sequence (Q13617 whole entry): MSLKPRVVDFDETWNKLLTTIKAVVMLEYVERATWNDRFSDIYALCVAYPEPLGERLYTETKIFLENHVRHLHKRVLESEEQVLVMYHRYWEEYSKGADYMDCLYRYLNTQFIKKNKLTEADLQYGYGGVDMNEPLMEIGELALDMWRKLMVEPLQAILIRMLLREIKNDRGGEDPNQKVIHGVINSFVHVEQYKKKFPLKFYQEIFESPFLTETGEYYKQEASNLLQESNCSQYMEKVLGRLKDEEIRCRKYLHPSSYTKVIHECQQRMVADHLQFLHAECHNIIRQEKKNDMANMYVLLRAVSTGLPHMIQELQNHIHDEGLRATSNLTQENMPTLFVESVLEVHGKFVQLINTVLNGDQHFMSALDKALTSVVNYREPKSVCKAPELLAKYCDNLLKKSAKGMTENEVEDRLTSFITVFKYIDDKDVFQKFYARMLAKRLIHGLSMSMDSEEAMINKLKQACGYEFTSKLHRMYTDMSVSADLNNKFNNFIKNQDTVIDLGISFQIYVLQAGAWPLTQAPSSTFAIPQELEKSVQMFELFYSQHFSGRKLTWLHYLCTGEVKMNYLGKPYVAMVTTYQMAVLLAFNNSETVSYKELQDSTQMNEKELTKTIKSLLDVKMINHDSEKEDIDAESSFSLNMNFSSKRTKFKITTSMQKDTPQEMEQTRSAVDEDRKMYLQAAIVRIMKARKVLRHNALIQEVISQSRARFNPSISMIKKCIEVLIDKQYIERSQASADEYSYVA
As to conditions: for isoTOP-ABPP reactivity ratio at lysine Q13617_K489 / isoTOP-ABPP ratio (R) at liganded lysine Q13617_K489: 50 uM, in vitro; for isoTOP-ABPP reactivity ratio at lysine Q13617_K489: 231 sol; for isoTOP-ABPP ratio (R) at liganded lysine Q13617_K489: sol, 231. In outline:
(§1)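 Competition format: fragment (50 μM activated ester, 100 μM guanidinylating agent) versus vehicle in lysate, then lysine probe STP-alkyne at 0.1 mM for 1 h. Quantitation by light/heavy TEV-tag MS1 peak areas, reported as R.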

Assay [2] has as its target T2, RINT1 RAD50-interacting protein 1 (Homo sapiens, UniProt Q6NUQ1).
T2 construct: isoTOP-ABPP experiments performed in cell lysates (in vitro); endogenous in cells; host or cells: soluble proteome of human cancer cell lines (MDA-MB-231; Ramos and Jurkat also prepared)
As to conditions: for isoTOP-ABPP reactivity ratio at lysine Q6NUQ1_K771 / isoTOP-ABPP ratio (R) at liganded lysine Q6NUQ1_K771: 50 uM, in vitro; for isoTOP-ABPP reactivity ratio at lysine Q6NUQ1_K771: 231 sol; for isoTOP-ABPP ratio (R) at liganded lysine Q6NUQ1_K771: sol, 231. In outline: as §1

Assay [3] deals with T3, GSTT2B Glutathione S-transferase theta-2B (Homo sapiens, UniProt P0CG30).
T3 construct: isoTOP-ABPP experiments performed in cell lysates (in vitro); endogenous in cells; host or cells: MDA-MB-231 soluble lysate
T3 sequence (P0CG30 1-244): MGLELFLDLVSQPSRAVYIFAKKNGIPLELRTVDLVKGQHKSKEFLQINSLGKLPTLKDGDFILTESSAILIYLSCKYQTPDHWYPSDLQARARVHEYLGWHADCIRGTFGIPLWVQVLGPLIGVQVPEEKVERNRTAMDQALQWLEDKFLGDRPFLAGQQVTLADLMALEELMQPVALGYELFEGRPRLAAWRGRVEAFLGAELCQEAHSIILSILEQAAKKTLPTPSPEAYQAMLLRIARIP
Conditions: for isoTOP-ABPP reactivity ratio at lysine P0CG30_K53 / isoTOP-ABPP ratio (R) at liganded lysine P0CG30_K53: 50 uM, in vitro; for isoTOP-ABPP reactivity ratio at lysine P0CG30_K53: 231 sol; for isoTOP-ABPP ratio (R) at liganded lysine P0CG30_K53: sol, 231. In outline:
as §1

For assay [4], the target named is T4, TRMT10C Mitochondrial ribonuclease P protein 1 (Homo sapiens, UniProt Q7L0Y3).
T4 construct: isoTOP-ABPP experiments performed in cell lysates (in vitro); endogenous in cells; host or cells: soluble proteome of human cancer cell lines (MDA-MB-231; Ramos and Jurkat also prepared)
T4 sequence (Q7L0Y3 40-403): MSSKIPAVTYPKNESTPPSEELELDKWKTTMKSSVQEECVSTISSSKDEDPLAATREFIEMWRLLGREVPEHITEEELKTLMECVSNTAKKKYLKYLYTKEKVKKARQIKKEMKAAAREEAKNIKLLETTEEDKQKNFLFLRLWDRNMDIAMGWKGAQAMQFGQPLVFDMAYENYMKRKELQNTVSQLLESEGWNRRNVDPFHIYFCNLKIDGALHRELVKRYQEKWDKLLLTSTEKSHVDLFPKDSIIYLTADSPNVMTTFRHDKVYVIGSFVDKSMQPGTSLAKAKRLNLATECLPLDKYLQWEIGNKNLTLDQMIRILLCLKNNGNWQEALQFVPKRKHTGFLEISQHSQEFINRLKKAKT
Conditions: for isoTOP-ABPP ratio (R) at liganded lysine Q7L0Y3_K325: sol, 231. A digest of the protocol:
as §1

Assay [5] addresses T5, GTPBP3 tRNA modification GTPase GTPBP3, mitochondrial (Homo sapiens, UniProt Q969Y2).
T5 construct: isoTOP-ABPP experiments performed in cell lysates (in vitro); endogenous in cells; host or cells: soluble proteome of human cancer cell lines (MDA-MB-231; Ramos and Jurkat also prepared)
T5 sequence (Q969Y2 21-492): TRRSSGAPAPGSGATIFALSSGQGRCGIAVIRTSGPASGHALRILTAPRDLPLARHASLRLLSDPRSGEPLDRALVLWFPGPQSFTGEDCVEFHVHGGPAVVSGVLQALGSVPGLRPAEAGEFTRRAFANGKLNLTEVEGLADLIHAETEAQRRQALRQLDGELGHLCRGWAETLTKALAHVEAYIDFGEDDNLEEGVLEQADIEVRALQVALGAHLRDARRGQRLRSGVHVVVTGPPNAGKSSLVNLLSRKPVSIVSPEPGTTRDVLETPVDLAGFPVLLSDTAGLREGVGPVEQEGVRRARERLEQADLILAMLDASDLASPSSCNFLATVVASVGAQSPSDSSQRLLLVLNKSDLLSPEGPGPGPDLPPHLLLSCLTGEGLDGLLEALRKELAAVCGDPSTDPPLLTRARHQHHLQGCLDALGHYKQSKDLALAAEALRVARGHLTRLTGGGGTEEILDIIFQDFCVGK
Conditions: for isoTOP-ABPP ratio (R) at liganded lysine Q969Y2_K492: 50 uM, in vitro, sol, 231. In outline: as §1

T2 sequence (Q6NUQ1 whole entry): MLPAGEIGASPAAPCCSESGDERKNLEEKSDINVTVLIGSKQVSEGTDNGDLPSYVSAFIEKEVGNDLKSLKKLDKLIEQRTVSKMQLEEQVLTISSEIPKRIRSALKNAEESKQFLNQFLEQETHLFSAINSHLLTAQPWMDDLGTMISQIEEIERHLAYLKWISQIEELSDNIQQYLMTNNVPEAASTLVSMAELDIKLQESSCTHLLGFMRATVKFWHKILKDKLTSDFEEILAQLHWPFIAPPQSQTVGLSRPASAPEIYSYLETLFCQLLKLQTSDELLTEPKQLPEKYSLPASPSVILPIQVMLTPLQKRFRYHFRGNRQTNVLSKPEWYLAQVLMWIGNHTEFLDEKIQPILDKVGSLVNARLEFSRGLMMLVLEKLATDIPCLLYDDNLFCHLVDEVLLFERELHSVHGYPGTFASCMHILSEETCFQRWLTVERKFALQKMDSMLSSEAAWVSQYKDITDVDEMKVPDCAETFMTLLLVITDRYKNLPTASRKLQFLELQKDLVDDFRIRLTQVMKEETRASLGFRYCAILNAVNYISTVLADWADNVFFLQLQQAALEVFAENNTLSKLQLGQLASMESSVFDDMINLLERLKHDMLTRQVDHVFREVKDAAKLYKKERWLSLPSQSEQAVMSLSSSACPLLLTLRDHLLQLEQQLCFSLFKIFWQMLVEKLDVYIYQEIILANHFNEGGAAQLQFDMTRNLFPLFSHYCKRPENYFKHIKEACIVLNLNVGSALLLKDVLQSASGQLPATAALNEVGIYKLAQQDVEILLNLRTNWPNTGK

Take `CCn1cc(C(=O)Oc2c(F)c(F)c(F)c(F)c2F)c(=O)c2ccc(C)nc21` [fragment 28, Pentafluorophenyl 1-ethyl-7-methyl-4-oxo-1,4-dihydro-1,8-naphthyridine-3-carboxylate]: the “isoTOP-ABPP reactivity ratio at lysine Q13617_K489” value in assay [1] was determined as 1.0. Besides, in assay [2], the “isoTOP-ABPP reactivity ratio at lysine Q6NUQ1_K771” value was 0.8. The “isoTOP-ABPP reactivity ratio at lysine P0CG30_K53” value in assay [3] is 1.0.

Take `COc1cc(CCC(=O)Oc2ccc([N+](=O)[O-])cc2[N+](=O)[O-])cc(OC)c1OC` [fragment 33, 2,4-Dinitrophenyl 3-(3,4,5-trimethoxyphenyl)propanoate]: the “isoTOP-ABPP reactivity ratio at lysine Q13617_K489” value in assay [1] was 1.2. Besides, in assay [4] (50 uM, 231 sol, in vitro), the “isoTOP-ABPP reactivity ratio at lysine Q7L0Y3_K325” value is reported as 0.9. Besides, the “isoTOP-ABPP reactivity ratio at lysine Q6NUQ1_K771” value in assay [2] is recorded as 1.0. For the same compound, the “isoTOP-ABPP reactivity ratio at lysine P0CG30_K53” value in assay [3] was found to be 0.5.

Take `O=C(Oc1ccc([N+](=O)[O-])cc1[N+](=O)[O-])c1ccc2ccccc2n1` [fragment 35, 2,4-Dinitrophenyl quinoline-2-carboxylate]: the “isoTOP-ABPP ratio (R) at liganded lysine Q13617_K489” value in assay [1] was 0.9. Also, the “isoTOP-ABPP ratio (R) at liganded lysine Q7L0Y3_K325” value in assay [4] (50 uM, in vitro) is given as 1.0. For the same compound, the “isoTOP-ABPP ratio (R) at liganded lysine Q6NUQ1_K771” value in assay [2] was 1.7. Further, in assay [3], the “isoTOP-ABPP ratio (R) at liganded lysine P0CG30_K53” value turned out to be 4.1.

With `O=C(CCc1coc2cc(F)ccc2c1=O)Oc1ccc([N+](=O)[O-])cc1[N+](=O)[O-]` [fragment 36, 2,4-Dinitrophenyl 3-(7-fluoro-4-oxo-4H-chromen-3-yl)propanoate], the “isoTOP-ABPP ratio (R) at liganded lysine Q13617_K489” value in assay [1] stood at 1.0. The “isoTOP-ABPP ratio (R) at liganded lysine Q969Y2_K492” value in assay [5] is recorded as 2.9. In addition, the “isoTOP-ABPP ratio (R) at liganded lysine Q6NUQ1_K771” value in assay [2] is listed as 0.9. The “isoTOP-ABPP ratio (R) at liganded lysine P0CG30_K53” value in assay [3] worked out at 0.5.

Consider `CC(C)(C)OC(=O)NCCCC(=O)Oc1ccc([N+](=O)[O-])cc1[N+](=O)[O-]` [fragment 41, 2,4-Dinitrophenyl 4-((tert-butoxycarbonyl)amino)butanoate], for which, in assay [1], the “isoTOP-ABPP ratio (R) at liganded lysine Q13617_K489” value stood at 1.0. In assay [4] (50 uM, in vitro), the “isoTOP-ABPP ratio (R) at liganded lysine Q7L0Y3_K325” value was 0.9. In assay [2], the “isoTOP-ABPP ratio (R) at liganded lysine Q6NUQ1_K771” value was found to be 0.8. In addition, the “isoTOP-ABPP ratio (R) at liganded lysine P0CG30_K53” value in assay [3] was 0.5.

Turning to `O=C(Oc1ccc([N+](=O)[O-])cc1[N+](=O)[O-])C(c1ccccc1)(c1ccccc1)c1ccccc1` [fragment 42, 2,4-Dinitrophenyl 2,2,2-triphenylacetate], the “isoTOP-ABPP ratio (R) at liganded lysine Q7L0Y3_K325” value in assay [4] (50 uM, in vitro) is listed as 1.0. The “isoTOP-ABPP ratio (R) at liganded lysine Q969Y2_K492” value in assay [5] is listed as 0.9. The “isoTOP-ABPP ratio (R) at liganded lysine Q6NUQ1_K771” value in assay [2] worked out at 1.1. Further, in assay [3], the “isoTOP-ABPP ratio (R) at liganded lysine P0CG30_K53” value is given as 1.0.

On to `O=C(Oc1c(F)c(F)cc(F)c1F)c1cc(C(F)(F)F)cc(C(F)(F)F)c1` [fragment 48, 2,3,5,6-Tetrafluorophenyl 3,5-bis(trifluoromethyl)benzoate], for which the “isoTOP-ABPP ratio, lysine Q13617_K489” value in assay [1] (50 uM_231_sol_in vitro) came out at 0.8. Besides, in assay [5] (50 uM_231_sol_in vitro), the “isoTOP-ABPP ratio, lysine Q969Y2_K492” value amounted to 1.4. Further, the “isoTOP-ABPP ratio, lysine Q6NUQ1_K771” value in assay [2] (50 uM_231_sol_in vitro) is 4.8. The “isoTOP-ABPP ratio, lysine P0CG30_K53” value in assay [3] (50 uM_231_sol_in vitro) was determined as 0.9.

On to `COC(=O)NC(=NC(=O)OCC1c2ccccc2-c2ccccc21)n1cccn1` [fragment 49, N-Methoxycarbonyl-N′-9-fluorenylmethoxycarbonyl-pyrazole-1-carboxamidine], for which the “isoTOP-ABPP ratio, lysine Q13617_K489” value in assay [1] (100 uM_231_sol_in vitro) was 1.1. The “isoTOP-ABPP ratio, lysine Q7L0Y3_K325” value in assay [4] (100 uM_231_sol_in vitro) was 1.2. The “isoTOP-ABPP ratio, lysine Q6NUQ1_K771” value in assay [2] (100 uM_231_sol_in vitro) came to 1.1. Further, in assay [3] (100 uM_231_sol_in vitro), the “isoTOP-ABPP ratio, lysine P0CG30_K53” value stood at 3.1.

In the case of `NC(=O)c1cc(C(F)(F)F)cc(C(F)(F)F)c1` [fragment 51, reference compound], the “isoTOP-ABPP ratio, lysine Q13617_K489” value in assay [1] (50 uM_231_sol_in vitro) came to 1.1. The “isoTOP-ABPP ratio, lysine Q7L0Y3_K325” value in assay [4] (50 uM_231_sol_in vitro) is listed as 0.9. The “isoTOP-ABPP ratio, lysine Q6NUQ1_K771” value in assay [2] (50 uM_231_sol_in vitro) is on record as 0.9. Moreover, the “isoTOP-ABPP ratio, lysine P0CG30_K53” value in assay [3] (50 uM_231_sol_in vitro) turned out to be 0.7.
